Assay results: PMC8228075, “In Vitro and In Silico Characterization of G-Protein Coupled Receptor (GPCR) Targets of Phlorofucofuroeckol-A and Dieckol” (Marine Drugs, 2021)
Where “and” joins values, the source holds several entries; their conditions need not be identical. Identical values can stand only once. Like-named read-outs stand apart in the source and are kept apart here. Marks after values point to notes of the source that are not given here.

Tests used:
[1] = target: T1, Alpha-2C adrenergic receptor (hα2CAR) (Homo sapiens, UniProt P18825); assay: hα2CAR functional antagonist assay (cAMP, HTRF, CHO cells); type: cell-based; conditions: read-out: Antagonist Effect
T1 construct: host or cells: CHO cells
T1 sequence (P18825 1-462): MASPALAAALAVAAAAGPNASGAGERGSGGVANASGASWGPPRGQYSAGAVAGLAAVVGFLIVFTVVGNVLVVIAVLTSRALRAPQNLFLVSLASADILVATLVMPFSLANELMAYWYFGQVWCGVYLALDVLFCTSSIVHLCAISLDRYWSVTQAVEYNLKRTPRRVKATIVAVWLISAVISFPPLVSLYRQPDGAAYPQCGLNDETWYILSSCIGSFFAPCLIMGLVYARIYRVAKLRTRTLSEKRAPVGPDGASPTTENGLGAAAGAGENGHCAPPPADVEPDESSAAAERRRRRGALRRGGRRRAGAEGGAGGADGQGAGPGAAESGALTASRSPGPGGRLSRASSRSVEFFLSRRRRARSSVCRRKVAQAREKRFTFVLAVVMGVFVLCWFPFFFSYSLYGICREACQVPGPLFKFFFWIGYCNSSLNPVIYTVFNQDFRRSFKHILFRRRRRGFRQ
Method: (§1) The in-house assay protocol and experimental conditions are reported in our previous reports. The functional effect of dieckol and PFF-A was characterized based on their modulation effect on cytosolic Ca^2+ ion mobilization using a fluorimetric detection method or by measuring their effect on cAMP modulation using homogeneous time-resolved fluorescence (HTRF) detection.
(§2) Functional activity of phlorotannins over hA2AR, hα2CAR, hCB1R, GLP-1R, and h5-HT1BR was determined by measuring their effects on cAMP production by the HTRF detection method using transected cells expressing human cloned receptors.
After 10 min at 37 °C, the cells were lysed and the fluorescence acceptor (D2-labeled cAMP) and fluorescence donor (anti-cAMP antibody labeled with europium cryptate) were added.

[2] = target: T2, Cannabinoid receptor 1 (CB1R) (Homo sapiens, UniProt P21554); assay: hCB1R functional agonist assay (cAMP, HTRF, CHO cells); type: cell-based; conditions: for Agonist Effect: % of control response to 10 nM CP 55940
T2 construct: host or cells: CHO cells
T2 sequence (P21554 whole entry): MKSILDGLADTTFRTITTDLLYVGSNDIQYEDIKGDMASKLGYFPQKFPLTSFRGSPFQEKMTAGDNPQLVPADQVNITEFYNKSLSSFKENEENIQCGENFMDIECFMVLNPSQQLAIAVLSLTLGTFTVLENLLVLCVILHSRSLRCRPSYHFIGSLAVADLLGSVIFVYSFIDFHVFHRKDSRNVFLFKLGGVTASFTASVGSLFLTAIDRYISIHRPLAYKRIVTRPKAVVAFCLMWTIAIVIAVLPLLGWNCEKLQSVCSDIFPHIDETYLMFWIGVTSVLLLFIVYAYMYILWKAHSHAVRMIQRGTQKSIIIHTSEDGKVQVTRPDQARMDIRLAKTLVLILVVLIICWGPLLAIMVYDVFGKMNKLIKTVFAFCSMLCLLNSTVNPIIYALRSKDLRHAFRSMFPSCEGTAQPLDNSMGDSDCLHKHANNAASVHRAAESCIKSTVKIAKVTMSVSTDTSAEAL
Method: as §1, §2
(§3) The transfected CHO cells were suspended in HBSS buffer (Invitrogen) complemented with 20 mM HEPES (pH 7.4). […] After 30 min of incubation at 37 °C, the cells were lysed and the fluorescence acceptor (D2-labeled cAMP) and fluorescence donor (anti-cAMP antibody labeled with europium cryptate) were added.

[3] = target: T2, Cannabinoid receptor 1 (CB1R); assay: hCB1R functional antagonist assay (cAMP, HTRF, CHO cells); type: cell-based; conditions: CHO, read-out: Antagonist Effect
Method: as §1, §2, §3

[4] = target: T3, Free fatty acid receptor 1 (FFA1R) (GPR40) (Homo sapiens, UniProt O14842); assay: FFA1R/GPR40 functional agonist assay (Ca2+ mobilization, HEK-293 cells); type: cell-based; conditions: 100 µM; % of control response to 100 µM linoleic acid
T3 construct: host or cells: HEK-293 cells
T3 sequence (O14842 whole entry): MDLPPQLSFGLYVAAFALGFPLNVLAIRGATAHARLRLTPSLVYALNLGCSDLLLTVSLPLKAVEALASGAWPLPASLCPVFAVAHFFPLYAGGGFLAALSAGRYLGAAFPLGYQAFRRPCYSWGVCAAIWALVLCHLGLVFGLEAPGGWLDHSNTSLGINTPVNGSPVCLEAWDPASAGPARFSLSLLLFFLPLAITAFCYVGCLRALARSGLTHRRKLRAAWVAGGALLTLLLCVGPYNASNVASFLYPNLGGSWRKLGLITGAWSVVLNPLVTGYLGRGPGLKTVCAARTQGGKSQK
Method: The in-house assay protocol and experimental conditions are reported in our previous reports. […] Then, the mixture of fluorescent probe (Fluo4 Direct, Invitrogen) and probenecid in HBSS buffer (Invitrogen) complemented with 20 mM Hepes (Invitrogen) (pH 7.4) was added into each well and incubated for 60 min at 37 °C, followed by 15 min incubation at 22 °C. Thereafter, the assay plates were positioned in a CellLux microplate reader (PerkinElmer, Waltham, MA, USA) which was used for the addition of the following: For agonist assay-test compound, reference agonist, or HBSS buffer (basal control). Linoleic acid at 100 μM was added in separate assay wells for stimulated control measurement.

[5] = target: T4, Glucagon-like peptide-1 receptor (GLP-1) (Mus musculus, UniProt O35659); assay: GLP-1R functional antagonist assay (cAMP, HTRF, βTC6 cells); type: cell-based; conditions: for Antagonist Effect: % inhibition of control response to 0.3 nM GLP-1(7–37); for IC50: antagonist effect, mean ± SD, n = 3; for inhibition at 12.5 µM / inhibition at 25 µM / inhibition at 100 µM: read-out: Antagonist Effect
T4 construct: mouse GLP-1 receptor-expressed βTC6 cells; host or cells: βTC6 cells
T4 sequence (O35659 22-463): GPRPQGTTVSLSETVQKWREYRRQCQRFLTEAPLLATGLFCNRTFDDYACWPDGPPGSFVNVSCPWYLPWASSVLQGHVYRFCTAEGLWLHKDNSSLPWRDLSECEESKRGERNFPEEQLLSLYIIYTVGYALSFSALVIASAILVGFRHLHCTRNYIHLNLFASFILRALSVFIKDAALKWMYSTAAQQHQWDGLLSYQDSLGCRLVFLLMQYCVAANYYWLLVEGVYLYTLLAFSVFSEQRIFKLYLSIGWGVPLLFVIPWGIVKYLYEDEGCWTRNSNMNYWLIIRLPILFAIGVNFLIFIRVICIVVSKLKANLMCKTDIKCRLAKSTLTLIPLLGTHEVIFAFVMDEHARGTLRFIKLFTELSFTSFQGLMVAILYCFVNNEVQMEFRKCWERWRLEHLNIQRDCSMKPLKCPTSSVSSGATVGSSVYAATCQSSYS
Method: as §1, §2
The HBSS buffer (Invitrogen) complemented with 20 mM HEPES (pH 7.4) and 500 µM IBMX was used to suspend and distribute the βTC6 cells at a density of 1.5x10^4 cells/well. The plate was then incubated for 10 min at RT in the presence of HBSS (basal and stimulated control), the test compound, or the reference agonist and antagonist. […] Following incubation, the cells were lysed and the fluorescence acceptor (D2-labeled cAMP) and fluorescence donor (anti-cAMP antibody labeled with europium cryptate) were added.

[6] = target: T5, Vasopressin 1A receptor (hV1AR) (Homo sapiens, UniProt P37288); set-up: method as in PMID 31238535; conditions: 100 µM, % of control response to 1 µM AVP, value extracted from previous study ref 22, cited from earlier work
T5 construct: host or cells: CHO-V1AR cells
T5 sequence (P37288 whole entry): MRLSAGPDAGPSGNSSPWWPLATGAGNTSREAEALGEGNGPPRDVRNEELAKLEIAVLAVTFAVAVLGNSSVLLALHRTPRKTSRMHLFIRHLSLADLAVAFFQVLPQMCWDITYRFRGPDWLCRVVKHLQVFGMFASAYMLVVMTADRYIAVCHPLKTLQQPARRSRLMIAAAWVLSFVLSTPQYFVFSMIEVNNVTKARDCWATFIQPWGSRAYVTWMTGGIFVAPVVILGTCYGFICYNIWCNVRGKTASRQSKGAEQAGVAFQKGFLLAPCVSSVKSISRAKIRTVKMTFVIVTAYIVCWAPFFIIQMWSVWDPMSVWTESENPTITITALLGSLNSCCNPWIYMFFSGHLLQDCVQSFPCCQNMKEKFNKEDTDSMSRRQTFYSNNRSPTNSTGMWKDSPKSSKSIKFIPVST

[7] = target: T5, Vasopressin 1A receptor (hV1AR); assay: hV1AR functional agonist assay (Ca2+ mobilization, CHO-V1AR cells); type: cell-based; conditions: for Agonist Effect: % of control response to 1 µM AVP
Excerpt: as §1
Then, fluorescent probe (Fluo4, Invitrogen) mixed with probenecid in HBSS buffer (Invitrogen, Carlsbad, CA, USA) supplemented with 20 mM HEPES, pH 7.4 (Invitrogen) was added to each well, allowing to equilibrate with the cells for 60 min at 37 °C, then 15 min at 22 °C.

[8] = agonist effect, mean ± SD, n = 3

| SMILES | inhibition at 100 µM [1] | Agonist Effect ([2]; 100 µM) | inhibition at 100 µM [3] | Agonist Effect [4] | Antagonist Effect ([5]; 25 µM) | Antagonist Effect ([5]; 50 µM) | IC50 [5] | inhibition at 12.5 µM [5] | inhibition at 25 µM [5] | inhibition at 100 µM [5] | further results |
| --- | --- | --- | --- | --- | --- | --- | --- | --- | --- | --- | --- |
| Oc1cc(O)cc(Oc2c(O)cc(O)c3c2Oc2c(O)cc4oc5c(Oc6cc(O)cc(O)c6)c(O)cc(O)c5c4c2O3)c1 [PFF-A, phlorofucofuroeckol-A] | 19.2 ± 9.76% | 113.8 ± 3.68% | 21.4 ± 0.49% | −1.0 ± 0.07% | 57.37 ± 1.15% | 83.87 ± 2.03% | 21.6 ± 2.16 µM | 25.6 ± 13.1% | 57.4% | 106 ± 1.27% | Agonist Effect ([2]; 12.5 µM): 46.7% and 46.7 ± 6.22%; Agonist Effect ([2]; 25 µM): 80.3% and 80.3 ± 4.10%; Agonist Effect ([2]; 50 µM): 96.45% and 96.45 ± 5.02%; EC50 [2, 8]: 13.4 ± 2.03 µM; potency relative to dieckol ([5]; from IC50 values, GLP-1R antagonist effect): two-fold higher; Agonist Effect [6]: 38.45 ± 7.14% and 38.45 ± 7.14 ^c %; Agonist Effect ([6]; listed as Phlorofucofuroeckol-A): 38.45 ± 7.14 ^a % |
| Oc1cc(O)cc(Oc2c(O)cc(O)c3c2Oc2c(O)cc(Oc4c(O)cc(Oc5c(O)cc(O)c6c5Oc5c(O)cc(O)cc5O6)cc4O)cc2O3)c1 [Dieckol, dieckol] | -1.2 ± 6.08% | −23.3 ± 12.09% | 159 ± 17.8% | 0.2 ± 1.56% | 21.23 ± 7.31% | 53.80 ± 3.12% | 47.2 ± 2.46 µM | 17.9 ± 6.32% | 21.2% | 101 ± 8.2% | Antagonist Effect ([5]; 100 µM): 101.0 ± 8.20%; Agonist Effect ([7]; 50 µM): 50.40 ± 0.42%; Agonist Effect ([7]; 100 µM): 106.73 ± 2.97%; Agonist Effect ([7]; 150 µM): 118.1 ± 2.83%; EC50 [7, 8]: 39.1 ± 2.12 µM |
